EP0908457B1, “3-(1,2-benzisothiazol- and isoxazol-5-Y1)-2,4(1H,3H)-pyrimidinedione or thione and 3-(1,2-benzisothiazol- and isoxazol-5-y1)-4(3H)-pyrimidinone or thione herbicidal agents” (BASF AKTIENGESELLSCHAFT, priority 1997, dated 1999)

Assays:
[1] = tested on: Echinochloa oryzoides (Ard.) Fritsch.; test: Preemergence weed control under flooded paddy conditions, ECHORC (Watergrass (Calif.)); format: in vivo; conditions: flooded paddy; for ECHORC: herbicidal effect rating 0-9, three to four weeks after treatment; as to herbicidal effect rating, ECHORC: meaning of each grade not given here
Cyperus iria = test: Preemergence weed control under flooded paddy conditions, CYPIR (Rice Flatsedge); format: in vivo; conditions: flooded paddy; for CYPIR: herbicidal effect rating 0-9, three to four weeks after treatment; as to herbicidal effect rating, CYPIR: meaning of each grade not given here
[2] = tested on: Cyperus serotinus, Rottb.; test: Preemergence weed control under flooded paddy conditions, CYPSE (Flatsedge); format: in vivo; conditions: for CYPSE: herbicidal effect rating 0-9, three to four weeks after treatment; as to herbicidal effect rating, CYPSE: meaning of each grade not given here
[3] = tested on: Monochoria vaginalis, Presl.; test: Preemergence weed control under flooded paddy conditions, MOOVA (Monochoria); format: in vivo; conditions: flooded paddy; for MOOVA: herbicidal effect rating 0-9, three to four weeks after treatment; as to herbicidal effect rating, MOOVA: meaning of each grade not given here
Sagittaria pygmaea, L. = test: Preemergence weed control under flooded paddy conditions, SAGPY (Arrowhead (Pygmaea)); format: in vivo; conditions: flooded paddy; for SAGPY: herbicidal effect rating 0-9, three to four weeks after treatment; as to herbicidal effect rating, SAGPY: meaning of each grade not given here
[4] = tested on: Oryza sativa, (L.) Tebonnet; test: Rice tolerance to post-transplant applications under flooded paddy conditions (Example 187), ORYSAT (Rice, Tebonnet); conditions: for herbicidal effect rating, ORYSAT (rice tolerance): rated three to four weeks after treatment; for ORYSAT: herbicidal effect rating 0-9, three to four weeks after treatment; for herbicidal effect rating ORYSAT: rated 3-4 weeks after treatment; as to herbicidal effect rating ORYSAT: meaning of each grade not given here
[5] = 0.0313 kg/ha, preemergence weeds, rated three to four weeks after treatment
[6] = 0.0625 kg/ha, preemergence weeds, rated three to four weeks after treatment
[7] = 0.1250 kg/ha, preemergence weeds, rated three to four weeks after treatment
[8] = 0.2500 kg/ha, preemergence weeds, rated three to four weeks after treatment
[9] = 0.0320 kg/ha, preemergence weeds
[10] = 0.0620 kg/ha, preemergence weeds
[11] = 0.1250 kg/ha, preemergence weeds
[12] = 0.2500 kg/ha, preemergence weeds
[13] = Rate 0.0320 kg/ha, preemergence, rated 3-4 weeks after treatment
[14] = Rate 0.0620 kg/ha, preemergence, rated 3-4 weeks after treatment
[15] = Rate 0.1250 kg/ha, preemergence, rated 3-4 weeks after treatment
[16] = Rate 0.2500 kg/ha, preemergence, rated 3-4 weeks after treatment
[17] = Rate 0.5000 kg/ha, preemergence, rated 3-4 weeks after treatment

CCOCCOCc1nsc2ccc(-n3c(=O)cc(C(F)(F)F)n(C)c3=O)cc12 [Example 200, 3-{3-[(2-Ethoxyethoxy)methyl]-1,2-benzisothiazol-5-yl}-1-methyl-6-(trifluoromethyl)-2,4(1H,3H)-pyrimidinedione]
herbicidal effect rating, ECHORC [1, 5]: 0.0
herbicidal effect rating, ECHORC [1, 6]: 2.0
herbicidal effect rating, ECHORC [1, 7]: 6.0
herbicidal effect rating, ECHORC [1, 8]: 9.0
herbicidal effect rating, CYPIR (Cyperus iria; [5]): 4.0
herbicidal effect rating, CYPIR (Cyperus iria; [6]): 6.0
herbicidal effect rating, CYPIR (Cyperus iria; [7]): 7.0
herbicidal effect rating, CYPIR (Cyperus iria; [8]): 8.0
herbicidal effect rating, CYPSE [2, 5]: 0.0
herbicidal effect rating, CYPSE [2, 6]: 0.0
herbicidal effect rating, CYPSE [2, 7]: 2.0
herbicidal effect rating, CYPSE [2, 8]: 7.0
herbicidal effect rating, MOOVA [3, 5]: 9.0
herbicidal effect rating, MOOVA [3, 6]: 9.0
herbicidal effect rating, MOOVA [3, 7]: 9.0
herbicidal effect rating, MOOVA [3, 8]: 9.0
herbicidal effect rating, SAGPY (Sagittaria pygmaea, L.; [5]): 0.0
herbicidal effect rating, SAGPY (Sagittaria pygmaea, L.; [6]): 0.0
herbicidal effect rating, SAGPY (Sagittaria pygmaea, L.; [7]): 0.0
herbicidal effect rating, SAGPY (Sagittaria pygmaea, L.; [8]): 4.0
herbicidal effect rating, ORYSAT (rice tolerance) ([4]; 0.0313 kg/ha): 7.0
herbicidal effect rating, ORYSAT (rice tolerance) ([4]; 0.0625 kg/ha): 7.0
herbicidal effect rating, ORYSAT (rice tolerance) ([4]; 0.1250 kg/ha): 9.0
herbicidal effect rating, ORYSAT (rice tolerance) ([4]; 0.2500 kg/ha): 9.0

CN(Cc1ccc(Cl)cc1)S(=O)(=O)NC(=O)c1nsc2ccc(-n3c(=O)cc(C(F)(F)F)n(C)c3=O)cc12 [Example 420, 1,2-Benzisothiazole-3-carboxamide, N-[(p-chlorobenzyl)methylsulfamoyl]-5-[3,6-dihydro-3-methyl-2,6-dioxo-4-(trifluoromethyl)-1(2H)-pyrimidinyl]-]
ECHORC [1, 9]: 7.0
ECHORC [1, 10]: 7.0
ECHORC [1, 11]: 7.0
ECHORC [1, 12]: 7.0
CYPIR (Cyperus iria; [9]): 2.0
CYPIR (Cyperus iria; [10]): 4.0
CYPIR (Cyperus iria; [11]): 6.0
CYPIR (Cyperus iria; [12]): 6.0
CYPSE [2, 12]: 0.0
MOOVA [3, 9]: 9.0
MOOVA [3, 10]: 9.0
MOOVA [3, 11]: 9.0
MOOVA [3, 12]: 9.0
SAGPY (Sagittaria pygmaea, L.; [9]): 0.0
SAGPY (Sagittaria pygmaea, L.; [10]): 0.0
SAGPY (Sagittaria pygmaea, L.; [11]): 2.0
SAGPY (Sagittaria pygmaea, L.; [12]): 3.0
ORYSAT ([4]; 0.0320 kg/ha): 0.0
ORYSAT ([4]; 0.0620 kg/ha): 2.0
ORYSAT ([4]; 0.1250 kg/ha): 3.0
ORYSAT ([4]; 0.2500 kg/ha): 5.0

COCC(C)OC(=O)COc1ccc(C)cc1-c1nsc2ccc(-n3c(=O)cc(C(F)(F)F)n(C)c3=O)cc12 (racemic) [Example 192, 1-Methyl-2-methoxyethyl {{2-{5-[3,6-dihydro-3-methyl-2,6-dioxo-4-(trifluoromethyl)-1(2H)-pyrimidinyl]-1,2-benzisothiazol-3-yl}-p-tolyl}oxy}acetate, DL-]
herbicidal effect rating, ECHORC [1, 5]: 1.0
herbicidal effect rating, ECHORC [1, 6]: 4.0
herbicidal effect rating, ECHORC [1, 7]: 9.0
herbicidal effect rating, ECHORC [1, 8]: 9.0
herbicidal effect rating, CYPIR (Cyperus iria; [5]): 0.0
herbicidal effect rating, CYPIR (Cyperus iria; [6]): 0.0
herbicidal effect rating, CYPIR (Cyperus iria; [7]): 2.0
herbicidal effect rating, CYPIR (Cyperus iria; [8]): 7.0
herbicidal effect rating, CYPSE [2, 5]: 0.0
herbicidal effect rating, CYPSE [2, 6]: 0.0
herbicidal effect rating, CYPSE [2, 7]: 0.0
herbicidal effect rating, MOOVA [3, 5]: 9.0
herbicidal effect rating, MOOVA [3, 6]: 9.0
herbicidal effect rating, MOOVA [3, 7]: 9.0
herbicidal effect rating, MOOVA [3, 8]: 9.0
herbicidal effect rating, SAGPY (Sagittaria pygmaea, L.; [5]): 0.0
herbicidal effect rating, SAGPY (Sagittaria pygmaea, L.; [6]): 0.0
herbicidal effect rating, SAGPY (Sagittaria pygmaea, L.; [7]): 2.0
herbicidal effect rating, SAGPY (Sagittaria pygmaea, L.; [8]): 9.0
herbicidal effect rating, ORYSAT (rice tolerance) ([4]; 0.0313 kg/ha): 1.0
herbicidal effect rating, ORYSAT (rice tolerance) ([4]; 0.0625 kg/ha): 2.0
herbicidal effect rating, ORYSAT (rice tolerance) ([4]; 0.1250 kg/ha): 3.0
herbicidal effect rating, ORYSAT (rice tolerance) ([4]; 0.2500 kg/ha): 4.0

Cc1ccc(OCC(=O)C(C)(C)C)c(-c2nsc3ccc(-n4c(=O)cc(C(F)(F)F)n(C)c4=O)cc23)c1 [Example 540, 2,4(1H,3H)-Pyrimidinedione, 3-{3-[6-(3,3-dimethyl-2-oxobutoxy)-m-tolyl]-1,2-benzisothiazol-5-yl}-1-methyl-6-(trifluoromethyl)-]
herbicidal effect rating, ECHORC [1, 13]: 2.3
herbicidal effect rating, ECHORC [1, 14]: 3.4
herbicidal effect rating, ECHORC [1, 15]: 4.7
herbicidal effect rating, ECHORC [1, 16]: 9.0
herbicidal effect rating, ECHORC [1, 17]: 9.0
herbicidal effect rating, CYPIR (Cyperus iria; [13]): 6.0
herbicidal effect rating, CYPIR (Cyperus iria; [14]): 8.0
herbicidal effect rating, CYPIR (Cyperus iria; [15]): 9.0
herbicidal effect rating, CYPIR (Cyperus iria; [16]): 9.0
herbicidal effect rating, CYPIR (Cyperus iria; [17]): 9.0
herbicidal effect rating, CYPSE [2, 13]: 0.0
herbicidal effect rating, CYPSE [2, 14]: 0.0
herbicidal effect rating, CYPSE [2, 15]: 0.0
herbicidal effect rating, CYPSE [2, 16]: 0.0
herbicidal effect rating, CYPSE [2, 17]: 3.0
herbicidal effect rating, MOOVA [3, 13]: 8.0
herbicidal effect rating, MOOVA [3, 14]: 9.0
herbicidal effect rating, MOOVA [3, 15]: 9.0
herbicidal effect rating, MOOVA [3, 16]: 9.0
herbicidal effect rating, MOOVA [3, 17]: 9.0
herbicidal effect rating, SAGPY (Sagittaria pygmaea, L.; [13]): 0.0
herbicidal effect rating, SAGPY (Sagittaria pygmaea, L.; [14]): 0.0
herbicidal effect rating, SAGPY (Sagittaria pygmaea, L.; [15]): 0.0
herbicidal effect rating, SAGPY (Sagittaria pygmaea, L.; [16]): 0.0
herbicidal effect rating, SAGPY (Sagittaria pygmaea, L.; [17]): 0.0
herbicidal effect rating ORYSAT ([4]; Rate 0.0320 kg/ha): 0.0
herbicidal effect rating ORYSAT ([4]; Rate 0.0620 kg/ha): 0.0
herbicidal effect rating ORYSAT ([4]; Rate 0.1250 kg/ha): 0.0
herbicidal effect rating ORYSAT ([4]; Rate 0.2500 kg/ha): 1.0
herbicidal effect rating ORYSAT ([4]; Rate 0.5000 kg/ha): 3.0

CC(OS(=O)(=O)c1ccccc1)c1nsc2ccc(-n3c(=O)cc(C(F)(F)F)n(C)c3=O)cc12 (stereo not shown) [Example 415, 2,4(1H,3H)-Pyrimidinedione, 3-[3-(1-hydroxyethyl)-1,2-benzisothiazol-5-yl]-1-methyl-6-(trifluoromethyl)-, benzenesulfonate (ester)]
ECHORC [1, 9]: 0.0
ECHORC [1, 10]: 0.0
ECHORC [1, 11]: 3.0
ECHORC [1, 12]: 9.0
CYPIR (Cyperus iria; [9]): 0.0
CYPIR (Cyperus iria; [10]): 0.0
CYPIR (Cyperus iria; [11]): 2.0
CYPIR (Cyperus iria; [12]): 6.0
CYPSE [2, 9]: 0.0
CYPSE [2, 10]: 0.0
MOOVA [3, 9]: 5.0
MOOVA [3, 10]: 5.0
MOOVA [3, 11]: 5.0
MOOVA [3, 12]: 8.0
ORYSAT ([4]; 0.0320 kg/ha): 3.0
ORYSAT ([4]; 0.0620 kg/ha): 4.0
ORYSAT ([4]; 0.1250 kg/ha): 5.0
ORYSAT ([4]; 0.2500 kg/ha): 9.0

COCCOC(=O)c1nsc2ccc(-n3c(=O)cc(C(F)(F)F)n(C)c3=O)cc12 [Example 411, 1,2-Benzisothiazole-3-carboxylic acid, 5-[3,6-dihydro-3-methyl-2,6-dioxo-4-(trifluoromethyl)-1(2H)-pyrimidinyl]-, 2-methoxyethyl ester]
ECHORC [1, 9]: 0.0
ECHORC [1, 10]: 0.0
ECHORC [1, 11]: 0.0
ECHORC [1, 12]: 6.0
CYPIR (Cyperus iria; [9]): 0.0
CYPIR (Cyperus iria; [10]): 2.0
CYPIR (Cyperus iria; [11]): 3.0
CYPIR (Cyperus iria; [12]): 9.0
CYPSE [2, 9]: 0.0
CYPSE [2, 10]: 2.0
CYPSE [2, 11]: 7.0
CYPSE [2, 12]: 9.0
MOOVA [3, 9]: 9.0
MOOVA [3, 10]: 9.0
MOOVA [3, 11]: 9.0
MOOVA [3, 12]: 9.0
ORYSAT ([4]; 0.0320 kg/ha): 0.0
ORYSAT ([4]; 0.0620 kg/ha): 0.0
ORYSAT ([4]; 0.1250 kg/ha): 2.0
ORYSAT ([4]; 0.2500 kg/ha): 5.0
